Results published in patent US7176234B2, “Derivatives of gambogic acid and analogs as activators of caspases and inducers of apoptosis” (priority 2002, dated 2007).
Where two headings read alike, the source gives them in different places.

How the values were obtained:
[1] = Conversion of methyl 9,10-dihydro-10-morpholinyl-gambogate to methyl gambogate in biological media (HPLC); assay type: physicochemical; conditions: solution of compound B 5 mg/ml in 87.5% RPMI 1640, 37° C., HPLC peak area
Procedure: A solution of methyl 9,10-dihydro-10-morpholinyl-gambogate in 87.5% RPMI 1640 biological Media (Invitrogen Corporation, Carlsbad, Calif.), 5.6% EtOH, 1.3% DMSO, and 5.6% Cremophor EL at a concentration of 5 mg/ml was stored at 37° C. The amount of methyl 9,10-dihydro-10-morpholinyl-gambogate (compound B) and methyl gambogate (compound C) was measured by integration of the peak area. The HPLC was run in the Beckman System Gold with 32 Karate software under the following conditions: […]

HEL cells = conditions: cited from earlier work
ICR (CD-1) mice = test: Maximum tolerated dose (MTD) in mice, I.V.; assay type: in vivo; conditions: mice
Procedure: For acute toxicity studies, 3 ICR (CD-1) mice were used per each dose group. Animals were given a single bolus injection in the tail vein with approximately 100 μl volume of compound formulation or vehicle formulation. Mice body weights were measured daily along with daily observation for clinical abnormalities. The maximum tolerated dose (MTD) was defined as the dose that results in less than 10% decrease in body weight with no clinical abnormalities.
For multiple dose studies, the animals were dosed once a day for 5 days.
Table IV summarizes the MTD of gambogic acid and methyl 9,10-dihydro-10-morpholinyl-gambogate in mice by I.V. administration.

[2] = Pharmacokinetic studies in mice (plasma, LC/MS/MS); assay type: in vivo, ICR mice
Procedure: ICR mice were administered a single dose of drug into the tail vein. At each time point, 3 animals were sacrificed and the blood was withdrawn by cardiac puncture. The blood cells were spun down and the plasma was collected and frozen immediately in liquid nitrogen. For sample processing, the plasma was thawed and extraction solvent was added along with an internal standard to assess recoveries. The samples were vortexed followed by centrifugation, and the extraction solution was collected and subjected to LC/MS/MS analysis to identify and quantitate the compound plasma concentration. The levels of compound from the three animals at each time point were averaged and the pharmacokinetic parameters calculated using WinNonLin program. Table V summarized the major PK parameters.

HeLa cells = conditions: cited from earlier work
KB-V1 cell line = conditions: cited from earlier work
ZR75-1 (Breast cancer) = test: Efficacy in human tumor xenograft mouse model ZR75-1; assay type: in vivo, human tumor in CD1 nu/nu mice; conditions: ZR75-1 xenograft, 5 mg/kg, every other day, I.V.
Procedure: (§1) CD1 nu/nu mice were used. Viable tumor bits of transplantable human xenografts approximately 50 mg of trocar or cultured human tumor cells (nx106 cells?) were implanted subcutaneously into the flank region of mice and tumors were allowed to grow to the desired average size of 100 mg. The mice were measured for tumor size and those within the accepted tumor range of 75–125 mg, were randomized into control and treatment groups with 8–9 mice per group. Treatment was initiated on these groups which have an average starting tumor size of 100 mg. The control group was injected with the vehicle used to dissolve the drug. Injections were I.V. via the tail vein. Tumor measurements were taken every other day along with weights of animals and all animals were observed daily for survival. Tumor size was calculated by the equation of: Tumor volume=(length×width^2)/2.

T-47D = test: Caspase cascade activation / apoptosis induction assay (N-(Ac-DEVD)-N'-ethoxycarbonyl-R110 substrate) in T-47D cells; assay type: cell-based, Human; conditions: for Caspase activity (Ratio): ratio of net RFU to control
Procedure: (§2) Human breast cancer cell lines T-47D and ZR-75-1 were grown according to media component mixtures designated by American Type Culture Collection+10% FCS (Invitrogen Corporation), in a 5% CO2-95% humidity incubator at 37° C. T-47D and ZR-75-1 cells were maintained at a cell density between 30 and 80% confluency and for HL-60 at a cell density of 0.1 to 0.6×10^6 cells/ml. Cells were harvested at 600×g and resuspended at 0.65×10^6 cells/mL into appropriate media+10% FCS. An aliquot of 45 μl of cells was added to a well of a 96-well microtiter plate containing 5 μl of a 10% DMSO in RPMI-1640 media solution containing 1.6 to 100 μM of gambogic acid or other test compound (0.16 to 10 μM final). An aliquot of 45 μl of cells was added to a well of a 96-well microtiter plate containing […] of a 10% DMSO in RPMI-1640 media solution without test compound as the control sample. The samples were mixed by agitation and then incubated at 37° C. for 24 h in a 5% CO2-95% humidity incubator. After incubation, the samples were removed from the incubator and 50 μl of a solution containing 20 μM of N-(Ac-DEVD)-N′-ethoxycarbonyl-R110 fluorogenic substrate SEQ ID NO:1 (Cytovia, Inc.; U.S. Pat. No. 6,335,429), 20% sucrose (Sigma), 20 mM DTT (Sigma), 200 mM NaCl (Sigma), 40 mM Na PIPES buffer pH 7.2 (Sigma), and 500 μg/mL lysolecithin (Calbiochem) was added. The samples were mixed by agitation and incubated at room temperature. Using a fluorescent plate reader (Model 1420 Wallac Instruments), an initial reading (T=0) was made approximately 1–2 min after addition of the substrate solution, employing excitation at 485 nm and emission at 530 nm, to determine the background fluorescence of the control sample. After approximately 3 h of incubation, the samples were read for fluorescence as above (T=3 h).
(§3) The Relative Fluorescence Unit values (RFU) were used to calculate the sample readings as follows: RFU(T=3h)−Control RFU(T=0)=Net RFU(T=3h)
(§4) The activity of caspase cascade activation was determined by the ratio of the net RFU value for derivatives of gambogic acid to that of control samples. The EC50 (nM) was determined by a sigmoidal dose-response calculation (Prism 2.0, GraphPad Software Inc.).
Methyl 9,10-dihydro-10-morpholinyl-gambogate and gambogic acid were assayed as described in Example 28 in T47D cells. The samples of cells and testing compound were incubated for 5 h and 24 h, respectively. Table II summarizes the caspase activity (Ratio) and potency (EC50) of methyl 9,10-dihydro-10-morpholinyl-gambogate (compound B) in the 5 h and 24 h assays, in comparison with that of gambogic acid (compound A).

[3] = test system: human tumor xenograft models; test: Efficacy studies in human tumor xenograft models (text summary, model not named); assay type: in vivo, human tumor in nu/nu mice
Procedure: as §1

KB cell line = conditions: cited from earlier work
ZR-75-1 = test: Caspase cascade activation / apoptosis induction assay (N-(Ac-DEVD)-N'-ethoxycarbonyl-R110 substrate) in ZR-75-1 cells; assay type: cell-based, Human; conditions: ZR-75-1, 24 h incubation; for Caspase activity (Ratio): ratio of net RFU to control; for EC50: read-out: Caspase potency EC50
Procedure: as §2, §3, §4

[4] = T-47D, 24 h incubation, read-out: Caspase potency EC50

COC(=O)/C(C)=C\C[C@@]12OC(C)(C)[C@@H]3C[C@@H](C=C4C(=O)c5c(O)c6c(c(CC=C(C)C)c5O[C@]431)O[C@](C)(CCC=C(C)C)C=C6)C2=O [C, Methyl gambogate]
Amount in biological media, 0 h ([1]; 0 h): 4 | Amount in biological media, 2 h ([1]; 2 h): 3 | Amount in biological media, 18 h ([1]; 18 h): 26 | Amount in biological media, 48 h ([1]; 48 h): 48 | Amount in biological media, 90 h ([1]; 90 h): 64

CC(C)=CCC[C@]1(C)C=Cc2c(O)c3c(c(CC=C(C)C)c2O1)O[C@]12C(=C[C@@H]4C[C@H]1C(C)(C)O[C@@]2(C/C=C(/C)C(=O)O)C4=O)C3=O [Compound A, Gambogic acid]
Cytotoxicity (HEL cells): cytotoxic | Multiple Dose MTD (ICR (CD-1) mice; I.V., once a day, 5 doses): 5 mg/kg | Injection site toxicity (ICR (CD-1) mice; tail vein injection): evidence of injection site toxicity, such as tail edema | T1/2, Terminal half-life ([2]; mice, single I.V. dose 5 mg/kg): 4.8 h | AUC (0-inf), Area under the curve ([2]; mouse, in vivo, iv, 5 mg/kg): 2,700 ng-h/ml | CL, Clearance ([2]; mouse, in vivo, iv, 5 mg/kg): 30.7 mL/min/kg | Vss, Vol. of distribution ([2]; mouse, in vivo, iv, 5 mg/kg): 2.9 L/kg | Cytotoxicity (HeLa cells): cytotoxic | Cytotoxicity (KB-V1 cell line): cytotoxic | % Tumor reduction (ZR75-1 (Breast cancer)): 20% | Activity in the caspase activation / apoptosis induction assay (in words), 5 h (T-47D; T47D cells, 5 h assay): active | Caspase activity (Ratio), 5 h (T-47D; T47D cells, 5 h assay): 29.5 | EC50 (T-47D; T47D cells, 5 h assay, read-out: Caspase potency EC50, 5 h): 1740 nM | Activity in the caspase activation / apoptosis induction assay (in words), 24 h (T-47D; T47D cells, 24 h assay): active | Caspase activity (Ratio), 24 h (T-47D; T47D cells, 24 h assay): 12.1 | EC50 (T-47D; T47D cells, 24 h assay, read-out: Caspase potency EC50, 24 h): 700 nM | Best efficacy, tumor growth inhibition ([3]; human tumor cells s.c. in nu/nu mice, at doses that were toxic, not statistically significant): approximately 20% | Efficacy (in words) ([3]; summary of Table VI, gambogic acid at its maximal tolerable dose): did not produce significant efficacy | Cytotoxicity (KB cell line): cytotoxic

CC(C)=CCCC1(C)C=Cc2c(O)c3c(c(CC=C(C)C)c2O1)OC12C(C3=O)C(N3CCOCC3)C3CC1C(C)(C)OC2(C/C=C(/C)C(=O)N1CCN(C)CC1)C3=O (stereo not shown) [Example 4, 9,10-Dihydro-10-morpholinyl-gambogyl (N-Methylpiperazine)]
Caspase activity (Ratio) (T-47D; T-47D, 24 h incubation): 19 | EC50 (T-47D; [4]): 1340 nM | Caspase activity (Ratio) (ZR-75-1): 18 | EC50 (ZR-75-1): 3980 nM

CC(C)=CCCC1(C)C=Cc2c(O)c3c(c(CC=C(C)C)c2O1)OC12C(C3=O)C(N3CCCCC3)C3CC1C(C)(C)OC2(C/C=C(/C)C(=O)N1CCN(C)CC1)C3=O (stereo not shown) [Example 5, 9,10-Dihydro-10-piperidinyl-gambogyl (N-Methylpiperazine)]
Caspase activity (Ratio) (T-47D; T-47D, 24 h incubation): 23 | EC50 (T-47D; [4]): 846 nM | Caspase activity (Ratio) (ZR-75-1): 5.3 | EC50 (ZR-75-1): 2340 nM

CC(C)=CCCC1(C)C=Cc2c(O)c3c(c(CC=C(C)C)c2O1)OC12C(C3=O)C(NCCN3CCOCC3)C3CC1C(C)(C)OC2(C/C=C(/C)C(=O)N1CCN(C)CC1)C3=O (stereo not shown) [Example 6, 9,10-Dihydro-10-[2-(morpholinyl)ethylamino]-gambogyl (N-Methylpiperazine)]
Caspase activity (Ratio) (T-47D; T-47D, 24 h incubation): 17 | EC50 (T-47D; [4]): 714 nM | Caspase activity (Ratio) (ZR-75-1): 4.1 | EC50 (ZR-75-1): 1450 nM

CC(C)=CCCC1(C)C=Cc2c(O)c3c(c(CC=C(C)C)c2O1)OC12C(C3=O)C(N3CCN(c4ccccn4)CC3)C3CC1C(C)(C)OC2(C/C=C(/C)C(=O)N1CCN(C)CC1)C3=O (stereo not shown) [Example 7, 9,10-Dihydro-10-[4-(2-pyridyl)piperazinyl]-gambogyl (N-Methylpiperazine)]
Caspase activity (Ratio) (T-47D; T-47D, 24 h incubation): 2.2 | EC50 (T-47D; [4]): 598 nM | Caspase activity (Ratio) (ZR-75-1): 1.6 | EC50 (ZR-75-1): > 10000 nM

CC(C)=CCCC1(C)C=Cc2c(O)c3c(c(CC=C(C)C)c2O1)OC12C(C3=O)C(OCCN(C)C)C3CC1C(C)(C)OC2(C/C=C(/C)C(=O)N1CCN(C)CC1)C3=O (stereo not shown) [Example 9, 9,10-Dihydro-10-(2-dimethylaminoethoxy)-gambogyl (N-Methylpiperazine)]
Caspase activity (Ratio) (T-47D; T-47D, 24 h incubation): 15 | EC50 (T-47D; [4]): 1960 nM | Caspase activity (Ratio) (ZR-75-1): 16 | EC50 (ZR-75-1): 5210 nM

CC(C)=CCCC1(C)C=Cc2c(O)c3c(c(CC=C(C)C)c2O1)OC12C(C3=O)C(N3CCOCC3)C3CC1C(C)(C)OC2(C/C=C(/C)C(=O)N1CCOCC1)C3=O (stereo not shown) [Example 10, 9,10-Dihydro-10-morpholinyl-gambogyl Morpholine]
Caspase activity (Ratio) (T-47D; T-47D, 24 h incubation): 23 | EC50 (T-47D; [4]): 592 nM | Caspase activity (Ratio) (ZR-75-1): 7.0 | EC50 (ZR-75-1): 1380 nM

CC(C)=CCC[C@]1(C)C=Cc2c(O)c3c(c(CC=C(C)C)c2O1)O[C@]12C(=C[C@@H]4C[C@H]1C(C)(C)O[C@@]2(C/C=C(\C)C(=O)O)C4=O)C3=O [isogambogic acid]
Cytotoxicity (KB-V1 cell line): cytotoxic | Cytotoxicity (KB cell line): cytotoxic

CC(C)=CCc1c2c(c(O)c3c1OC14C(=CC5CC1C(C)(C)OC4(C/C=C(\C)CO)C5=O)C3=O)C=CC(C)(C)O2 (stereo not shown) [isomorellinol]
Cytotoxicity (KB-V1 cell line; KB-V1 cell line): cytotoxic | Cytotoxicity (KB cell line; KB cell line): cytotoxic
